The source of these data is patent publication US20260265248A1, “NOVEL PD-L1 INHIBITORS” (AFFIRMA BIOTECH S. L., priority 2023, published 2026).

The test has as its target T1, PD-1/PD-L1 (Homo sapiens, UniProt Q9NZQ7).
T1 construct: purchased CisBio
Nature of the test: PD1-PDL1 HTRF assay. As to conditions: PD-1/PD-L1 homogenous time-resolved fluorescence (HTRF) binding assay; Tag1-PDL1 5 nM, Tag2-PD1 50 nM. The text has this: The CisBio HTRF assay kit, purchased from CisBio only, was employed to determine the IC50 values of compounds. The PD1-PDL1 HTRF assay measures the interactions between the two proteins, PD1 and PDL1. The interaction is detected by using anti-Tag1 labeled with Europium (HTRF donor) which binds to PDL1 and anti-Tag2 labeled with XL665 (HTRF acceptor) which binds to PD1. When the two antibodies are in proximity, the excitation of the donor fluorophore results in FRET emission from the acceptor fluorophore. The presence of inhibitors for such an interaction result in reduction of HTRF signal.
The assay was conducted in 96-well white assay plates. All the reagents, including Tag1-PDL1, Tag2-PD1, Anti-Tag1-PDL1, Anti-Tag2-PD1 were thawed and diluted with PPI Europium Detection buffer to achieve the desired concentration as per the manufacturer's protocol. A 1000 μM stock solution of test inhibitors was prepared in DMSO. The stock solution was diluted in DMSO to prepare 8 concentrations (1000-0.001 μM). These stock solutions were further diluted in PPI Europium detection buffer to prepare 8 working stock solutions (100-0.0001 μM). To the 96-well plate, 2 μL of the test inhibitor working stock solutions were added followed by 4 μL of Tag1-PDL1 (5 nM) and 4 μL of Tag2-PD1 (50 nM). The plate was incubated at room temperature for 15 min. Subsequently, 10 μL of pre-mixed Anti-Tag1-PDL1 and Anti-Tag2-PD1 solution was added. The plate was sealed and incubated at room temperature for 1 h. The HTRF signal was read on Perkin Elmer Envision plate reader using excitation wavelength of 320 nm, emission wavelengths of 620 nm and 665 nm. Results were obtained by calculating the ratio of signal from acceptor at 665 nm to that of signal from donor at 620 nm multiplied by […]. The IC50 values were determined by the Hill equation using GraphPad Prism software.
On the technique in general: Time-resolved FRET reads energy transfer from a long-lived donor to a nearby acceptor.

T1 sequence (Q9NZQ7 19-238 limits assumed): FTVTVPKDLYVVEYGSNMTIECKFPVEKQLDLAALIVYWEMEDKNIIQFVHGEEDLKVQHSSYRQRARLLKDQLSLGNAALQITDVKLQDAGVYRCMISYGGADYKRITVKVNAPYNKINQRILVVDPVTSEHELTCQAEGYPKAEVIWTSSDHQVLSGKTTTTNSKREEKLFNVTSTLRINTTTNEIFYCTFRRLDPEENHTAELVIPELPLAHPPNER

As to `Cc1c(-c2ccc3c(c2)OCCO3)cccc1-c1ccn2c(-c3ccc(CN4CCC[C@H]4C(=O)O)cc3)cnc2c1` [Example 28, (4-(7-(3-(2,3-dihydrobenzo[b][1,4]dioxin-6-yl)-2-methylphenyl)imidazo[1,2-a]pyridin-3-yl)benzyl)-L-proline], the half-maximal inhibitory concentration (IC50) fell in the range of 0.1 to 1 µM.

With `Cc1c(-c2ccc3c(c2)OCCO3)cccc1-c1ccn2c(-c3ccc(CN4CC[C@@H]4C(=O)O)cc3)cnc2c1` [Example 29, (R)-1-(4-(7-(3-(2,3-dihydrobenzo[b][1,4]dioxin-6-yl)-2-methylphenyl)imidazo[1,2-a]pyridin-3-yl)benzyl)azetidine-2-carboxylic acid], the IC50 fell in the range of 0.1 to 1 µM.

In turn, `Cc1c(-c2ccc3c(c2)OCCO3)cccc1-c1ccn2c(-c3ccc(CNCC(O)CC(=O)O)cc3)cnc2c1` (stereo not drawn) [Example 30, 4-((4-(7-(3-(2,3-dihydrobenzo[b][1,4]dioxin-6-yl)-2-methylphenyl)imidazo[1,2-a]pyridin-3-yl)benzyl)amino)-3-hydroxybutanoic acid] yielded an IC50 of 0.1 to 1 µM.

The compound `Cc1c(-c2ccc3c(c2)OCCO3)cccc1-c1ccn2c(-c3ccc(CNC[C@@H](O)CO)cc3)cnc2c1` [Example 31, (R)-3-((4-(7-(3-(2,3-dihydrobenzo[b][1,4]dioxin-6-yl)-2-methylphenyl)imidazo[1,2-a]pyridin-3-yl)benzyl)amino)propane-1,2-diol] returned an IC50 of 0.1 to 1 µM.

`Cc1c(-c2ccc3c(c2)OCCO3)cccc1-c1ccn2c(-c3ccc(CNC[C@H](O)CO)cc3)cnc2c1` [Example 32, (S)-3-((4-(7-(3-(2,3-dihydrobenzo[b][1,4]dioxin-6-yl)-2-methylphenyl)imidazo[1,2-a]pyridin-3-yl)benzyl)amino)propane-1,2-diol] came in with a 50% inhibitory concentration (IC50) of 0.1 to 1 µM.

The compound `Cc1c(-c2ccc3c(c2)OCCO3)cccc1-c1ccn2c(-c3ccc(CN4CCCCC4C(=O)O)cc3)cnc2c1` (stereo not drawn) [Example 36, 1-(4-(7-(3-(2,3-dihydrobenzo[b][1,4]dioxin-6-yl)-2-methylphenyl)imidazo[1,2-a]pyridin-3-yl)benzyl)piperidine-2-carboxylic acid] yielded an IC50 of 0.1 to 1 µM.

`Cc1c(-c2ccc3c(c2)OCCO3)cccc1-c1ccn2c(-c3ccc(CN4CCC[C@H]4C(=O)O)cc3)cnc2c1` [Example 37, (4-(7-(3-(2,3-dihydrobenzo[b][1,4]dioxin-6-yl)-2-methylphenyl)imidazo[1,2-a]pyridin-3-yl)benzyl)proline] came in with an IC50 of 0.1 to 1 µM.

In turn, `Cc1c(-c2ccc3c(c2)OCCO3)cccc1-c1ccn2c(-c3ccc(CN4C[C@@H](C(=O)O)C[C@H]4O)cc3)cnc2c1` [Example 38, (3S,5R)-1-(4-(7-(3-(2,3-dihydrobenzo[b][1,4]dioxin-6-yl)-2-methylphenyl)imidazo[1,2-a]pyridin-3-yl)benzyl)-5-hydroxypyrrolidine-3-carboxylic acid] gave a concentration for half-maximal inhibition (IC50) of 0.1 to 1 µM.

`COc1cc(-c2cnc3cc(-c4cccc(-c5ccc6c(c5)OCCO6)c4C)ccn23)cc(OC)c1CN1CCC[C@H]1C(=O)O` [Example 40, (4-(7-(3-(2,3-dihydrobenzo[b][1,4]dioxin-6-yl)-2-methylphenyl)imidazo[1,2-a]pyridin-3-yl)-2,6-dimethoxybenzyl)-L-proline] showed a 50% inhibitory concentration (IC50) of 0.1 to 1 µM.

`Cc1c(-c2ccc3c(c2)OCCO3)cccc1-c1ccn2c(-c3ccc(C(=O)NCC(=O)O)cc3)cnc2c1` [Example 41, (4-(7-(3-(2,3-dihydrobenzo[b][1,4]dioxin-6-yl)-2-methylphenyl)imidazo[1,2-a]pyridin-3-yl)benzoyl)glycine]: the IC50 was in the range of 0.1 to 1 µM.

As for `Cc1c(-c2ccc3c(c2)OCCO3)cccc1-c1ccn2c(-c3ccc(C(=O)N4CCC[C@@H]4C(=O)O)cc3)cnc2c1` [Example 42, (4-(7-(3-(2,3-dihydrobenzo[b][1,4]dioxin-6-yl)-2-methylphenyl)imidazo[1,2-a]pyridin-3-yl)benzoyl)-D-proline], the 50% inhibitory concentration (IC50) fell in the range of 0.1 to 1 µM.

The compound `Cc1c(-c2ccc3c(c2)OCCO3)cccc1-c1ccn2c(-c3ccc(C(=O)N4CCC[C@H]4C(=O)O)cc3)cnc2c1` [Example 43, (4-(7-(3-(2,3-dihydrobenzo[b][1,4]dioxin-6-yl)-2-methylphenyl)imidazo[1,2-a]pyridin-3-yl)benzoyl)-L-proline] displayed an IC50 of 0.1 to 1 µM.

`Cc1c(-c2ccccc2)cccc1-c1ccn2c(-n3ccc(C(=O)NCCO)n3)cnc2c1` [Example 44, N-(2-hydroxyethyl)-1-(7-(2-methyl-[1,1′-biphenyl]-3-yl)imidazo[1,2-a]pyridin-3-yl)-1H-pyrazole-3-carboxamide] had an IC50 of 0.1 to 1 µM.

In the case of `Cc1c(-c2ccccc2)cccc1-c1ccn2c(-n3ccc(C(=O)NCC(=O)O)n3)cnc2c1` [Example 45, (1-(7-(2-methyl-[1,1′-biphenyl]-3-yl)imidazo[1,2-a]pyridin-3-yl)-1H-pyrazole-3-carbonyl)glycine], the half-inhibitory concentration (IC50) was 0.1 to 1 µM.

Turning to `CC(=O)NCCNC(=O)c1ccn(-c2cnc3cc(-c4cccc(-c5ccccc5)c4C)ccn23)n1` [Example 46, N-(2-acetamidoethyl)-1-(7-(2-methyl-[1,1′-biphenyl]-3-yl)imidazo[1,2-a]pyridin-3-yl)-1H-pyrazole-3-carboxamide], the IC50 was 0.1 to 1 µM.

In the case of `Cc1c(-c2ccccc2)cccc1-c1ccn2c(-n3ccc(C(=O)NCCC(=O)O)n3)cnc2c1` [Example 47, N 3-(1-(7-(2-methyl-[1,1′-biphenyl]-3-yl)imidazo[1,2-a]pyridin-3-yl)-1H-pyrazole-3-carboxamido)propanoic acid], the IC50 lay within 0.1 to 1 µM.

`Cc1c(-c2ccc3c(c2)OCCO3)cccc1-c1ccn2c(-n3ccc(C(=O)NCC(=O)O)n3)cnc2c1` [Example 48, (1-(7-(3-(2,3-dihydrobenzo[b][1,4]dioxin-6-yl)-2-methylphenyl)imidazo[1,2-a]pyridin-3-yl)-1H-pyrazole-3-carbonyl)glycine]: the IC50 is 0.01 to 0.1 µM.

`Cc1c(-c2ccc3c(c2)OCCO3)cccc1-c1ccn2c(-n3ccc(C(=O)NCC(=O)O)n3)nnc2c1` [Example 49, (1-(7-(3-(2,3-dihydrobenzo[b][1,4]dioxin-6-yl)-2-methylphenyl)-[1,2,4]triazolo[4,3-a]pyridin-3-yl)-1H-pyrazole-3-carbonyl)glycine] came in with an IC50 of 0.01 to 0.1 µM.

In turn, `Cc1c(-c2ccccc2)cccc1-c1ccn2c(C#CCN3CCC[C@@H]3C(=O)O)cnc2c1` [Example 50, (3-(7-(2-methyl-[1,1′-biphenyl]-3-yl)imidazo[1,2-a]pyridin-3-yl)prop-2-yn-1-yl)-D-proline] had a concentration for half-maximal inhibition (IC50) of 0.1 to 1 µM.

Regarding `Cc1c(-c2ccccc2)cccc1-c1ccn2c(C#CCN3CCC[C@H]3C(=O)O)cnc2c1` [Example 51, (3-(7-(2-methyl-[1,1′-biphenyl]-3-yl)imidazo[1,2-a]pyridin-3-yl)prop-2-yn-1-yl)-L-proline], the IC50 lay within 0.1 to 1 µM.

Compound `Cc1c(-c2ccccc2)cccc1-c1ccn2c(-c3ccc(CN4CCCCC4C(=O)O)cc3)nnc2c1` (stereo not drawn) [Example 52, 1-(4-(7-(2-methyl-[1,1′-biphenyl]-3-yl)-[1,2,4]triazolo[4,3-a]pyridin-3-yl)benzyl)piperidine-2-carboxylic acid] came in with an IC50 of 0.1 to 1 µM.

`Cc1c(-c2ccccc2)cccc1-c1ccn2c(-c3ccc(CN4CCC[C@H]4C(=O)O)cc3)nnc2c1` [Example 53, (4-(7-(2-methyl-[1,1′-biphenyl]-3-yl)-[1,2,4]triazolo [4,3-a]pyridin-3-yl)benzyl)proline] returned an IC50 of 0.1 to 1 µM.

Compound `Cc1c(-c2ccccc2)cccc1-c1ccn2c(-c3ccc(CNCCO)cc3)nnc2c1` [Example 54, 2-((4-(7-(2-methyl-[1,1′-biphenyl]-3-yl)-[1,2,4]triazolo[4,3-a]pyridin-3-yl)benzyl)amino)ethan-1-ol] came in with an IC50 of 0.1 to 1 µM.

For the compound `Cc1c(-c2ccccc2)cccc1-c1ccn2c(-c3ccc(CNCC(O)CC(=O)O)cc3)nnc2c1` (stereo not drawn) [Example 55, 3-hydroxy-4-((4-(7-(2-methyl-[1,1′-biphenyl]-3-yl)-[1,2,4]triazolo[4,3-a]pyridin-3-yl)benzyl)amino)butanoic acid], the concentration for half-maximal inhibition (IC50) lay in the range of 0.1 to 1 µM.

With `Cc1c(-c2ccc3c(c2)OCCO3)cccc1-c1ccn2c(-c3ccc(CN4CCC[C@@H]4C(=O)O)cc3)nnc2c1` [Example 56, (4-(7-(3-(2,3-dihydrobenzo[b][1,4]dioxin-6-yl)-2-methylphenyl)-[1,2,4]triazolo[4,3-a]pyridin-3-yl)benzyl)-D-proline], the concentration for half-maximal inhibition (IC50) fell in the range of 0.01 to 0.1 µM.

For the compound `Cc1c(-c2ccc3c(c2)OCCO3)cccc1-c1ccn2c(-c3ccc(CN4CCC[C@H]4C(=O)O)cc3)nnc2c1` [Example 57, (4-(7-(3-(2,3-dihydrobenzo[b][1,4]dioxin-6-yl)-2-methylphenyl)-[1,2,4]triazolo[4,3-a]pyridin-3-yl)benzyl)-L-proline], the IC50 fell in the range of 0.01 to 0.1 µM.

`Cc1c(-c2ccccc2)cccc1-c1ccn2c(-c3ccc(CN4CCC[C@@H]4C(=O)O)cc3)nnc2c1` [Example 58, (4-(7-(2-methyl-[1,1′-biphenyl]-3-yl)-[1,2,4]triazolo[4,3-a]pyridin-3-yl)benzyl)-D-proline]: the IC50 lay in the range of 0.01 to 0.1 µM.

As usually defined, the IC50 is the point on the concentration scale where inhibition reaches its midpoint.
